Measurements reported in patent US8822517B2, “Arylosulfonamides for the treatment of CNS diseases” (Adamed SP. Z O.O., priority 2010, dated 2014).
Like-named read-outs stand apart in the source and are kept apart here.

Tests used:
[1] = target: T1, serotonine transporter (SERT) receptor (Homo sapiens, UniProt P31645); assay: Binding assay SERT (h), [3H]imipramine, CHO cells; details: read-out: SERT [%]
T1 construct: expressed in transfected cells; host or cells: CHO cells
Outline: (§1)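 Single-concentration test (1×10^−6 M). Total and non-specific binding were counted by scintillation, and their difference defines specific binding.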

sigma σ receptor = assay: Binding assay σ (non-selective), [3H]DTG, rat cerebral cortex; details: percent inhibition of control specific binding; compounds tested at 1×10^−6 M
Outline: as §1

adrenergic α1 receptor = assay: Binding assay α1 (non-selective), [3H]prazosin, rat cerebral cortex; details: percent inhibition of control specific binding; compounds tested at 1×10^−6 M
Outline: as §1

muscarinic M3 receptor = target: T2, muscarinic M3 receptor (Homo sapiens, UniProt P20309); assay: Binding assay M3 (h), [3H]4-DAMP, CHO cells; details: read-out: M3 [%]
T2 construct: expressed in transfected cells; host or cells: CHO cells
T2 sequence (P20309 whole entry): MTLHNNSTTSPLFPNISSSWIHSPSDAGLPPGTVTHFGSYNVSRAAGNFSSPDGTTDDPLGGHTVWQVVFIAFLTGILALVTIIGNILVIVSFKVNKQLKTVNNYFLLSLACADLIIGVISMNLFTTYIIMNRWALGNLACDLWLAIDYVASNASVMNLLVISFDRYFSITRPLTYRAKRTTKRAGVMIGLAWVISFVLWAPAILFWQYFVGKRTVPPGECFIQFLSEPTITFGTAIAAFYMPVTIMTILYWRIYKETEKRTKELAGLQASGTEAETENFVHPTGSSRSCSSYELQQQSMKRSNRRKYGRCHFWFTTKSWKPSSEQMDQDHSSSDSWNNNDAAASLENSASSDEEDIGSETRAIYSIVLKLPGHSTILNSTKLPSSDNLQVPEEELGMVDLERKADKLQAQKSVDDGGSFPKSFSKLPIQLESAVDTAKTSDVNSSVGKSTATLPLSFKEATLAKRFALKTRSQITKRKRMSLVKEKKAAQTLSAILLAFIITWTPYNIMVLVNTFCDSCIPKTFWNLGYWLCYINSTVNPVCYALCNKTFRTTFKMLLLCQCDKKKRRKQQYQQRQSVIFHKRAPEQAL
Outline: as §1

[2] = target: T3, serotoninergic 5-HT7 receptor (Homo sapiens, UniProt P34969); assay: Cellular functional assay, serotoninergic 5-HT7 receptor (agonism/antagonism); assay type: cell-based; details: for activation at 1 µM: read-out: 5-HT7-ag [%]; for inhibition at 1 µM: read-out: 5-HT7-antag. [%]
T3 sequence (P34969 whole entry): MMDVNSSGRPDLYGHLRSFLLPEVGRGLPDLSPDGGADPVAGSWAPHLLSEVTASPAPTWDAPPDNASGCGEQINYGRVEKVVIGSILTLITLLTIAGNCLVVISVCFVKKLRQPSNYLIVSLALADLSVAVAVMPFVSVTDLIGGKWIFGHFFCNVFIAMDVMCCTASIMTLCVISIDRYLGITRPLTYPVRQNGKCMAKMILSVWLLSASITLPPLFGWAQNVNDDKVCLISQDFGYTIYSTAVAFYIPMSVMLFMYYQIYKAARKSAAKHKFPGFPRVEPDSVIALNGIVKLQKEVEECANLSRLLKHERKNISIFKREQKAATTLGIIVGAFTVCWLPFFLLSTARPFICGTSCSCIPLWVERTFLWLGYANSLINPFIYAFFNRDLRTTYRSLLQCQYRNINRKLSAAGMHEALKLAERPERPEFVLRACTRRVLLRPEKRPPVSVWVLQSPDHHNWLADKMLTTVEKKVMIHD
Procedure: (§2) The compounds were tested at the concentration of 1×10^−6M.
(§3) In the Tables ag refers to agonism, and antag to antagonism).

[3] = target: T3, serotoninergic 5-HT7 receptor; assay: Binding assay 5-HT7 (h), [3H]LSD, CHO cells; design: expressed in transfected cells; host or cells: CHO cells; details: read-out: 5-HT7
Outline: as §1

adrenergic α2C receptor = target: T4, adrenergic α2C receptor (Homo sapiens, UniProt P18825); assay: Binding assay α2C (h), [3H]RX 821002, CHO cells; design: expressed in transfected cells; host or cells: CHO cells; details: read-out: α2C [%]
T4 sequence (P18825 1-462): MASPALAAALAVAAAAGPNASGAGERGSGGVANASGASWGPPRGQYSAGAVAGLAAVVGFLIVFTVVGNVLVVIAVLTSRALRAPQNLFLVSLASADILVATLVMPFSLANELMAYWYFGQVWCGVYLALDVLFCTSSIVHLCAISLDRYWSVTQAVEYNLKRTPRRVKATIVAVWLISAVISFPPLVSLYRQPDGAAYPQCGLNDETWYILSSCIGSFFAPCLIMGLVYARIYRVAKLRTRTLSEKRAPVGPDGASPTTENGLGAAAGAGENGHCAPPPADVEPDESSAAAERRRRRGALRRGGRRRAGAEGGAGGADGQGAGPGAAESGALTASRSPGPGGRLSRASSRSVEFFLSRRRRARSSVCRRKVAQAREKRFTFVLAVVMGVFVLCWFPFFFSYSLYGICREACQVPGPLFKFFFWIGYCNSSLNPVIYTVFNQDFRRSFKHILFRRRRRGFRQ
Outline: as §1

dopaminergic D2 receptor [4] = target: T5, dopaminergic D2 receptor (Homo sapiens, UniProt P14416); assay: Binding assay D2S (h), [3H]methyl-spiperone, HEK-293 cells; design: expressed in transfected cells; host or cells: HEK-293 cells; details: read-out: D2 [%]
Outline: as §1
Target sequence in this assay (P14416 1-414 isoform P14416-2): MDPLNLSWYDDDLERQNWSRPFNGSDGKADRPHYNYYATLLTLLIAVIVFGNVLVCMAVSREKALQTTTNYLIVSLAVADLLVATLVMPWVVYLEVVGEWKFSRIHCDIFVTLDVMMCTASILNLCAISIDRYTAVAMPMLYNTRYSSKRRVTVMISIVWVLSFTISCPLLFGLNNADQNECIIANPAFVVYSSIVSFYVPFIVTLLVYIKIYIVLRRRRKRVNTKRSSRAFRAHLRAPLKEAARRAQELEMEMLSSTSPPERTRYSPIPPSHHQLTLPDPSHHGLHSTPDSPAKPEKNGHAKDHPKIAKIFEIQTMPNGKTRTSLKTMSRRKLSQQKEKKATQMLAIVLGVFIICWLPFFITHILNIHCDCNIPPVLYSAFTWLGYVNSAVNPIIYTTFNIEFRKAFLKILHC

[5] = target: serotoninergic 5-HT2A receptor (Homo sapiens, UniProt P28223); assay: Binding assay 5-HT2A (h), [3H]ketanserin, HEK-293 cells; design: expressed in transfected cells; host or cells: HEK-293 cells; details: read-out: 5-HT2A
serotoninergic 5-HT2A receptor, sequence (P28223 whole entry): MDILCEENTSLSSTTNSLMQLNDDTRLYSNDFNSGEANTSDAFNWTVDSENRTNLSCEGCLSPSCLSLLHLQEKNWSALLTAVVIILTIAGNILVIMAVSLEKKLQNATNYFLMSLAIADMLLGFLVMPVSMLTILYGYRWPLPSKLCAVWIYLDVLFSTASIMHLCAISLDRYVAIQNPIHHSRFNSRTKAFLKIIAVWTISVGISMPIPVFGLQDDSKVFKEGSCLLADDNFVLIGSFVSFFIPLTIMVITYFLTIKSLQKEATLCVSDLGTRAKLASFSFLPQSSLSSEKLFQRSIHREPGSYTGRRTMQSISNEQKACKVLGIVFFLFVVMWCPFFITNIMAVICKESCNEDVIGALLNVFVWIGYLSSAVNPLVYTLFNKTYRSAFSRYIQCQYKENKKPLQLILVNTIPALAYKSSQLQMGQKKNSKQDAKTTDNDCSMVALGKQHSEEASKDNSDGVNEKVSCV
Outline: as §1

[6] = target: histaminergic H1 receptor (Homo sapiens, UniProt P35367); assay: Binding assay H1 (h), [3H]pyrilamine, HEK-293 cells; design: expressed in transfected cells; host or cells: HEK-293 cells; details: read-out: H1 [%]
histaminergic H1 receptor, sequence (P35367 whole entry): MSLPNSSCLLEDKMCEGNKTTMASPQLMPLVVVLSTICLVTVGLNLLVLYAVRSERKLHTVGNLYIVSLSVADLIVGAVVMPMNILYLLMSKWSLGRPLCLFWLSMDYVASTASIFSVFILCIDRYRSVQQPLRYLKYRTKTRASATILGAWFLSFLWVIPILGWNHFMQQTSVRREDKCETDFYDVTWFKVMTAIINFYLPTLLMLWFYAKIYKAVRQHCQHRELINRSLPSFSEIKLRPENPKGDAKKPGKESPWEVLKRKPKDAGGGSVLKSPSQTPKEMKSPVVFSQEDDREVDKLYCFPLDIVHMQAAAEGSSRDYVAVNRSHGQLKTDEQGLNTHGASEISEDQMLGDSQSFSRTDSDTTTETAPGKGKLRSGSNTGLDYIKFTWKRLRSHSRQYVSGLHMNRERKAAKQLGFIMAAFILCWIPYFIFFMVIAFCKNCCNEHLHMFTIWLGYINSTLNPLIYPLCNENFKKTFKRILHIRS
Outline: as §1

dopaminergic D2 receptor [7] = target: T5, dopaminergic D2 receptor; assay: Cellular functional assay, dopaminergic D2 receptor (agonism/antagonism); assay type: cell-based; details: HEK293; for activation at 1 µM: agonist effect, percent of control specific agonist response (3 μM dopamine for control), 1×10^−6 M, D2S (h), HEK-293 cells, read-out: D2-ag [%]; for inhibition at 1 µM: read-out: D2-antag. [%]
Procedure: as §2, §3
Target sequence in this assay (P14416 whole entry): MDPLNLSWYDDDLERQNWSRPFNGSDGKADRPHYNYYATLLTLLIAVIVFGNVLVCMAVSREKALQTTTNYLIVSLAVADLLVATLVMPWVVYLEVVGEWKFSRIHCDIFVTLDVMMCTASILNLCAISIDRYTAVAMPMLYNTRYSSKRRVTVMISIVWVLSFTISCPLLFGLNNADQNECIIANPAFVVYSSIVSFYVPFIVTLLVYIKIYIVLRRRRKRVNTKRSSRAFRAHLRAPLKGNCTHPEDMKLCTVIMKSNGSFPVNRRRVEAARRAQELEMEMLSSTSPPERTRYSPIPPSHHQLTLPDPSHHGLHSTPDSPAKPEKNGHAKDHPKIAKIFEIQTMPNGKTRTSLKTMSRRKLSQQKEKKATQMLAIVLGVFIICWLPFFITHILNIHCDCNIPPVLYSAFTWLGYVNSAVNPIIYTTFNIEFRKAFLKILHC

adrenergic α1A receptor = target: T6, adrenergic α1A receptor (Homo sapiens, UniProt P35348); assay: Cellular functional assay, adrenergic α1A receptor (agonism/antagonism); assay type: cell-based; details: for activation at 1 µM: agonist effect, percent of control specific agonist response, compounds tested at 1×10^−6M, read-out: α1A -ag [%]; for inhibition at 1 µM: read-out: α1A -antag. [%]
T6 sequence (P35348 1-466): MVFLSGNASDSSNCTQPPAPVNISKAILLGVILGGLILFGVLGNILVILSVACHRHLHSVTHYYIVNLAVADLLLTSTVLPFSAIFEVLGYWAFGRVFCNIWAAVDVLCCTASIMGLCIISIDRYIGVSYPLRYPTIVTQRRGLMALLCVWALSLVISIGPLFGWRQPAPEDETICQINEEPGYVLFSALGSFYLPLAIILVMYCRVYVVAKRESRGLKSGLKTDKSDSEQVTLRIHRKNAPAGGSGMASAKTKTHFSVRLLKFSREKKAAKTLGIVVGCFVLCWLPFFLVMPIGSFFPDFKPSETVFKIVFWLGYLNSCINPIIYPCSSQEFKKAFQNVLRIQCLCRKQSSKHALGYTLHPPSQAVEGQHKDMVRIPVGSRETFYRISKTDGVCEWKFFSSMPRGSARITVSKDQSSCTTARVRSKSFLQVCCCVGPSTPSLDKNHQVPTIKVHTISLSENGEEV
Procedure: […]. The compounds were tested at the concentration of 1×10^−6M.
Conditions and methodology (by reference to the literature) of cellular functional assays are given in Table 13 and the tests results for representative compounds are given in Table 14 (dopaminergic receptor D2), in Table 15 (dopaminergic receptor D3), in Table 16 (serotoninergic receptor 5-HT1A), in Table 17 (serotoninergic receptor 5-HT2A), in Table 18 (serotoninergic receptor 5-HT6), in Table 19 (serotoninergic receptor 5-HT7), in Table 20 (adrenergic α1 receptor), in Table 21 (adrenergic α2C receptor), in Table 22 (histaminergic H1 receptor) and in Table 23 (serotoninergic 5-HT2C receptor). In the Tables ag refers to agonism, and antag to antagonism).

dopaminergic D3 receptor = dopaminergic D3 receptor (Homo sapiens, UniProt P35462); assay: Cellular functional assay, dopaminergic D3 receptor (agonism/antagonism); assay type: cell-based; details: for inhibition at 1 µM: CHO, read-out: D3-antag. [%]; for activation at 1 µM: agonist effect, percent of control specific agonist response (300 nM dopamine for control), 1×10^−6 M, D3 (h), CHO cells, read-out: D3-ag [%]
dopaminergic D3 receptor, sequence (P35462 whole entry): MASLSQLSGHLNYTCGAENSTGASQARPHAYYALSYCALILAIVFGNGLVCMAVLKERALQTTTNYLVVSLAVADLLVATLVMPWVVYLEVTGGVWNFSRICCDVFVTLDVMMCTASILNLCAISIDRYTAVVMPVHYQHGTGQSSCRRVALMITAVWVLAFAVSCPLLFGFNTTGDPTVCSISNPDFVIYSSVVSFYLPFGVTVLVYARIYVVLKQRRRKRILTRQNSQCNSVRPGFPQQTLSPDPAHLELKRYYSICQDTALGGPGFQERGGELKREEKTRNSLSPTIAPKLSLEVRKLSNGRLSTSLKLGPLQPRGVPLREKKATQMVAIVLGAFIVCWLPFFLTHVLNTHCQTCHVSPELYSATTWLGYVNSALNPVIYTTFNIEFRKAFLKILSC
Procedure: as §2, §3

[8] = agonist effect, percent of control specific agonist response, compounds tested at 1×10^−6M

T1 sequence (P31645 whole entry): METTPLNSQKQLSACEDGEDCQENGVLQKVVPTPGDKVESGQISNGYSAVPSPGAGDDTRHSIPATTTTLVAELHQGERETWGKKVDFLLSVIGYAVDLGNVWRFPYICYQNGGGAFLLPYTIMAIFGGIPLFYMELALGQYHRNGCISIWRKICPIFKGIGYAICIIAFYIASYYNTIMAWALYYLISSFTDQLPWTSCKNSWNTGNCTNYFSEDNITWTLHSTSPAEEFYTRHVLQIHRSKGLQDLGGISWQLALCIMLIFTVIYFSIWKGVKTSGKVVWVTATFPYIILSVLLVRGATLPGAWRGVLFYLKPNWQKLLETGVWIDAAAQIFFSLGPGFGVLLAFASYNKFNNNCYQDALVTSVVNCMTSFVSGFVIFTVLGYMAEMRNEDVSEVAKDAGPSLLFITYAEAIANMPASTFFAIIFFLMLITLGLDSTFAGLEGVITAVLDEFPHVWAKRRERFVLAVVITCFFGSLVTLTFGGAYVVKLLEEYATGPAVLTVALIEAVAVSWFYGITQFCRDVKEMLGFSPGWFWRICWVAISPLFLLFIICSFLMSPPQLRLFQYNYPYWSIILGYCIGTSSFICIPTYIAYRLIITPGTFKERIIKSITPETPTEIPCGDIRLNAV

| Compound | inhibition at 1 µM [1] [%] | σ [%] (sigma σ receptor) | α1 [%] (adrenergic α1 receptor) | inhibition at 1 µM (muscarinic M3 receptor) [%] | activation at 1 µM [2] [%] | inhibition at 1 µM [2] [%] | inhibition at 1 µM [3] [%] | inhibition at 1 µM (adrenergic α2C receptor) [%] | inhibition at 1 µM (dopaminergic D2 receptor [4]) [%] | inhibition at 1 µM [5] [%] | inhibition at 1 µM [6] [%] | activation at 1 µM (dopaminergic D2 receptor [7]) [%] | inhibition at 1 µM (dopaminergic D2 receptor [7]) [%] | activation at 1 µM [2, 8] [%] | activation at 1 µM (adrenergic α1A receptor) [%] | inhibition at 1 µM (adrenergic α1A receptor) [%] | inhibition at 1 µM (dopaminergic D3 receptor) [%] | activation at 1 µM (dopaminergic D3 receptor) [%] |
| --- | --- | --- | --- | --- | --- | --- | --- | --- | --- | --- | --- | --- | --- | --- | --- | --- | --- | --- |
| Cc1cccc(S(=O)(=O)NCCCCN2CCN(c3nsc4ccccc34)CC2)c1 [Compound 3, N-(4-(4-(1,2-Benzothiazol-3-yl)piperazin-1-yl)butyl)-3-methylbenzenesulphonamide] | 57 | 66 | 100 | 13 | -2 | 93 | 97 | 99 | 96 | 100 | 94 | – | – | – | – | – | – | – |
| O=S(=O)(NCCCCN1CCN(c2cccc3[nH]ccc23)CC1)c1ccccc1 [Compound 27, N-{4-[4-(1H-Indol-4-yl)piperazin-1-yl]butyl}benzenesulphonamide] | -3 | 78 | 96 | 46 | – | 8 | 92 | 100 | 90 | 62 | 27 | 40 | 100 | 5 | 1 | 100 | – | – |
| O=S(=O)(NCCCCN1CCN(c2cccc3[nH]ccc23)CC1)c1cccc(F)c1 [Compound 28, 3-Fluoro-N-{4-[4-(1H-indol-4-yl)piperazin-1-yl]butyl}benzenesulphonamide] | 53 | 84 | 92 | 50 | – | 23 | 92 | 92 | 98 | 89 | 57 | 49 | 105 | 4 | – | – | -2 | 59 |
| O=S(=O)(NCCCCN1CCN(c2cccc3[nH]ccc23)CC1)c1cnc2ccccn12 [Compound 30, N-{4-[4-(1H-Indol-4-yl)piperazin-1-yl]butyl}-imidazo[1,2-a]pyridine-3-sulphonamide] | 14 | 42 | 96 | 66 | – | 73 | 96 | 99 | 98 | 67 | 40 | 43 | 97 | 5 | 0 | 97 | 35 | 52 |
| O=S(=O)(NCCCCN1CCN(c2cccc3[nH]ccc23)CC1)c1cccc(Cl)c1 [Compound 113, N-[4-[4-(1H-Indol-4-yl)piperazin-1-yl]butyl]-3-chlorobenzenesulphonamide] | 28 | 92 | 99 | 29 | – | 45 | 97 | 99 | 98 | 69 | 60 | 42 | 94 | 9 | 1 | 100 | 30 | 39 |
| O=c1[nH]c2cccc(N3CCN(CCCNS(=O)(=O)c4cccc5ccccc45)CC3)c2[nH]1 [Compound 423, N-[3-[4-(2-oxo-1,3-dihydrobenzimidazol-4-yl)piperazin-1-yl]propyl]naphthalene-1-sulphonamide] | 25 | 9 | 91 | -1 | – | – | 88 | 69 | 97 | 30 | 16 | 41 | 96 | – | 16 | 70 | 22 | 70 |
